From PubChem BioAssay AID1259407 (Chemical Carcinogenesis Research Information System (CCRIS), 2018)
The source made the active and inactive calls. The rule behind the calls is not given here.

Tested on: CCRIS mutagenicity, Ames/micronucleus/aberration tests
Assay: CCRIS mutagenicity studies

SMILES: CNNCc1ccc(C(=O)NC(C)C)cc1
- mutagenic call (Test System: AMES SALMONELLA TYPHIMURIUM, Strain/Indicator: TA97, Metabolic Activation: HAMSTER, LIVER, S-9, AROCLOR 1254 (10 OR 30%), Method: PREINCUBATION): inactive; negative
- mutagenic call (Test System: AMES SALMONELLA TYPHIMURIUM, Strain/Indicator: TA97, Metabolic Activation: NONE, Method: PREINCUBATION): inactive; negative
- mutagenic call (Test System: AMES SALMONELLA TYPHIMURIUM, Strain/Indicator: TA97, Metabolic Activation: RAT, LIVER, S-9, AROCLOR 1254 (10 OR 30%), Method: PREINCUBATION): inactive; negative
- mutagenic call (Test System: AMES SALMONELLA TYPHIMURIUM, Strain/Indicator: TA98, Metabolic Activation: HAMSTER, LIVER, S-9, AROCLOR 1254 (10 OR 30%), Method: PREINCUBATION): inactive; negative
- mutagenic call (Test System: AMES SALMONELLA TYPHIMURIUM, Strain/Indicator: TA98, Metabolic Activation: NONE, Method: PREINCUBATION): inactive; negative
- mutagenic call (Test System: AMES SALMONELLA TYPHIMURIUM, Strain/Indicator: TA98, Metabolic Activation: NONE, Method: STANDARD PLATE): inactive; negative
- mutagenic call (Test System: AMES SALMONELLA TYPHIMURIUM, Strain/Indicator: TA98, Metabolic Activation: RAT, LIVER, S-9, AROCLOR 1254 (10 OR 30%), Method: PREINCUBATION): inactive; negative
- mutagenic call (Test System: AMES SALMONELLA TYPHIMURIUM, Strain/Indicator: TA98, Metabolic Activation: S-9, Method: PREINCUBATION): inactive; negative
- mutagenic call (Test System: AMES SALMONELLA TYPHIMURIUM, Strain/Indicator: TA98, Metabolic Activation: S-9, Method: STANDARD PLATE): inactive; negative
- mutagenic call (Test System: AMES SALMONELLA TYPHIMURIUM, Strain/Indicator: TA100, Metabolic Activation: HAMSTER, LIVER, S-9, AROCLOR 1254 (10 OR 30%), Method: PREINCUBATION): inactive; negative
- mutagenic call (Test System: AMES SALMONELLA TYPHIMURIUM, Strain/Indicator: TA100, Metabolic Activation: NONE, Method: PREINCUBATION): inactive; negative
- mutagenic call (Test System: AMES SALMONELLA TYPHIMURIUM, Strain/Indicator: TA100, Metabolic Activation: NONE, Method: STANDARD PLATE): inactive; negative
- mutagenic call (Test System: AMES SALMONELLA TYPHIMURIUM, Strain/Indicator: TA100, Metabolic Activation: RAT, LIVER, S-9, AROCLOR 1254 (10 OR 30%), Method: PREINCUBATION): inactive; negative
- mutagenic call (Test System: AMES SALMONELLA TYPHIMURIUM, Strain/Indicator: TA100, Metabolic Activation: RAT, LIVER, S-9, PYRAZOLE, Method: PREINCUBATION): inactive; negative
- mutagenic call (Test System: AMES SALMONELLA TYPHIMURIUM, Strain/Indicator: TA100, Metabolic Activation: S-9, Method: PREINCUBATION): inactive; negative
- mutagenic call (Test System: AMES SALMONELLA TYPHIMURIUM, Strain/Indicator: TA100, Metabolic Activation: S-9, Method: STANDARD PLATE): inactive; negative
- mutagenic call (Test System: AMES SALMONELLA TYPHIMURIUM, Strain/Indicator: TA1530 (PKM101), Metabolic Activation: RAT, LIVER, S-9, ETHANOL, Method: PREINCUBATION): inactive; negative
- mutagenic call (Test System: AMES SALMONELLA TYPHIMURIUM, Strain/Indicator: TA1530 (PKM101), Metabolic Activation: RAT, LIVER, S-9, PYRAZOLE, Method: PREINCUBATION): inactive; negative
- mutagenic call (Test System: AMES SALMONELLA TYPHIMURIUM, Strain/Indicator: TA1535, Metabolic Activation: HAMSTER, LIVER, S-9, AROCLOR 1254 (10 OR 30%), Method: PREINCUBATION): inactive; negative
- mutagenic call (Test System: AMES SALMONELLA TYPHIMURIUM, Strain/Indicator: TA1535, Metabolic Activation: NONE, Method: PREINCUBATION): inactive; negative
- mutagenic call (Test System: AMES SALMONELLA TYPHIMURIUM, Strain/Indicator: TA1535, Metabolic Activation: RAT, LIVER, S-9, AROCLOR 1254 (10 OR 30%), Method: PREINCUBATION): inactive; negative
- mutagenic call (Test System: AMES SALMONELLA TYPHIMURIUM, Strain/Indicator: TA1535, Metabolic Activation: RAT, LIVER, S-9, PYRAZOLE, Method: PREINCUBATION): inactive; negative
- mutagenic call (Test System: AMES SALMONELLA TYPHIMURIUM, Strain/Indicator: TA1537, Metabolic Activation: HAMSTER, LIVER, S-9, AROCLOR 1254 (10 OR 30%), Method: PREINCUBATION): inactive; negative
- mutagenic call (Test System: AMES SALMONELLA TYPHIMURIUM, Strain/Indicator: TA1537, Metabolic Activation: NONE, Method: PREINCUBATION): inactive; negative
- mutagenic call (Test System: AMES SALMONELLA TYPHIMURIUM, Strain/Indicator: TA1537, Metabolic Activation: RAT, LIVER, S-9, AROCLOR 1254 (10 OR 30%), Method: PREINCUBATION): inactive; negative
- mutagenic call (Test System: CHINESE HAMSTER OVARY, Strain/Indicator: CHO-K1-BH4 (HGPRT), Metabolic Activation: RAT, LIVER, S-9, AROCLOR, Method: SUSPENSION/PLATE): active; positive
- mutagenic call (Test System: CHINESE HAMSTER V-79, Strain/Indicator: V-79/6-THIOGUANINE, Metabolic Activation: NONE, Method: CELL-MEDIATED): active; positive
- mutagenic call (Test System: CHINESE HAMSTER V-79, Strain/Indicator: V-79/6-THIOGUANINE, Metabolic Activation: RAT, LIVER, HEPATOCYTES, AROCLOR 1254, Method: CELL-MEDIATED): active; positive
- mutagenic call (Test System: CHINESE HAMSTER V-79, Strain/Indicator: V-79/6-THIOGUANINE, Metabolic Activation: RAT, LIVER, HEPATOCYTES, Method: CELL-MEDIATED): active; positive
- mutagenic call (Test System: CHINESE HAMSTER V-79, Strain/Indicator: V-79/6-THIOGUANINE, Metabolic Activation: RAT, LIVER, S-9, AROCLOR 1254, Method: CELL-MEDIATED): active; positive
- mutagenic call (Test System: CHINESE HAMSTER V-79, Strain/Indicator: V-79/6-THIOGUANINE, Metabolic Activation: RAT, LIVER, S-9, Method: CELL-MEDIATED): active; positive
- mutagenic call (Test System: E. COLI, Strain/Indicator: WP2 (HCR), Metabolic Activation: NONE, Method: STANDARD PLATE): inactive; negative
- mutagenic call (Test System: E. COLI, Strain/Indicator: WP2 (HCR), Metabolic Activation: S-9, Method: STANDARD PLATE): inactive; negative
- mutagenic call (Test System: E. COLI, Strain/Indicator: WP2 (PKM101), Metabolic Activation: RAT, LIVER, S-9, PYRAZOLE, Method: PREINCUBATION): inactive; negative
- mutagenic call (Test System: E. COLI, Strain/Indicator: WP2 UVRA (PKM101), Metabolic Activation: RAT, LIVER, S-9, PYRAZOLE, Method: PREINCUBATION): inactive; negative
- mutagenic call (Test System: E. COLI, Strain/Indicator: WP2 UVRA, Metabolic Activation: HAMSTER, LIVER, S-9, AROCLOR 1254, Method: STANDARD PLATE): inactive; negative
- mutagenic call (Test System: E. COLI, Strain/Indicator: WP2 UVRA, Metabolic Activation: HAMSTER, LIVER, S-9, Method: STANDARD PLATE): inactive; negative
- mutagenic call (Test System: E. COLI, Strain/Indicator: WP2 UVRA, Metabolic Activation: MOUSE, LIVER, S-9, AROCLOR 1254, Method: STANDARD PLATE): inactive; negative
- mutagenic call (Test System: E. COLI, Strain/Indicator: WP2 UVRA, Metabolic Activation: MOUSE, LIVER, S-9, Method: STANDARD PLATE): inactive; negative
- mutagenic call (Test System: E. COLI, Strain/Indicator: WP2 UVRA, Metabolic Activation: NONE, Method: STANDARD PLATE): inactive; negative
- mutagenic call (Test System: E. COLI, Strain/Indicator: WP2 UVRA, Metabolic Activation: RAT, LIVER, S-9, AROCLOR 1254, Method: STANDARD PLATE): inactive; negative
- mutagenic call (Test System: E. COLI, Strain/Indicator: WP2 UVRA, Metabolic Activation: RAT, LIVER, S-9, Method: STANDARD PLATE): inactive; negative
- mutagenic call (Test System: MOUSE LYMPHOMA, Strain/Indicator: L5178Y (HGPRT), Metabolic Activation: NONE, Method: SUSPENSION/PLATE): active; positive
- mutagenic call (Test System: MOUSE LYMPHOMA, Strain/Indicator: L5178Y (TK+/TK-), Metabolic Activation: NONE, Method: MICROWELL): active; positive
- mutagenic call (Test System: MOUSE LYMPHOMA, Strain/Indicator: L5178Y (TK+/TK-), Metabolic Activation: NONE, Method: MINIWELL): active; positive
- mutagenic call (Test System: MOUSE LYMPHOMA, Strain/Indicator: L5178Y (TK+/TK-), Metabolic Activation: RAT, LIVER, S-9, AROCLOR 1242 AND 1254 (2:1), Method: SUSPENSION/PLATE): active; positive
- mutagenic call (Test System: MOUSE LYMPHOMA, Strain/Indicator: L5178Y (TK+/TK-), Metabolic Activation: RAT, LIVER, S-9, AROCLOR 1254, Method: SUSPENSION/PLATE): active; positive
